Legend:
[1] = biological target: Prolyl endopeptidase (Sus scrofa, UniProt P23687)
Description: In vitro inhibition of prolyl oligopeptidase (POP) from pig brain

[2] = Partition coefficient (logP); format: physicochemical; details: octanol/water
[3] = biological target: Prolyl endopeptidase (Sus scrofa) (UniProt P23687); assay: Compound was tested for in vitro inhibition of prolyl oligopeptidase (POP) from pig brain at 0.1 mM
Sequence of Prolyl endopeptidase (Sus scrofa) (P23687 whole entry, looked up): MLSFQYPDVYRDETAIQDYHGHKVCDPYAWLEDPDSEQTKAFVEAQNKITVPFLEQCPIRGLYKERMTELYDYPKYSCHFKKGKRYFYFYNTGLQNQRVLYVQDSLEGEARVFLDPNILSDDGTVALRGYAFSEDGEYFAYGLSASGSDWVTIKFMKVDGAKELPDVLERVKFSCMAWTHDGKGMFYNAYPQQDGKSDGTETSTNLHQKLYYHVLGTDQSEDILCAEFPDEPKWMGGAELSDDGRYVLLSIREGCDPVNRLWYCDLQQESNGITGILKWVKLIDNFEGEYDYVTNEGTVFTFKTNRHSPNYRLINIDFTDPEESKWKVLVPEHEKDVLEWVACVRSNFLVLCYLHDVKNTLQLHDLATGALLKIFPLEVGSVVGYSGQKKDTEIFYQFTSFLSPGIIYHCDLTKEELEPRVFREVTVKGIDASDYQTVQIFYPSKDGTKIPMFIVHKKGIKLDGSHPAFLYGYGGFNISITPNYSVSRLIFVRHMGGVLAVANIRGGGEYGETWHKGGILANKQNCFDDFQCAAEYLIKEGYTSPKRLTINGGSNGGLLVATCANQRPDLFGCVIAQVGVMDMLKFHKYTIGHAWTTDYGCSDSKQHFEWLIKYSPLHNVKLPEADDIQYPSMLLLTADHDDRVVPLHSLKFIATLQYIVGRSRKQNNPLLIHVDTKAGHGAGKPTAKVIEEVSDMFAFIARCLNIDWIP

Sequence of Prolyl endopeptidase (P23687 whole entry): as the sequence (P23687 whole entry, looked up) above

SMILES	IC50 [1] [nM]	logP [2]	inhibition [3] [%]
O=C(NCC(=O)N1CCCC1)c1cccc(C(=O)NCC(=O)N2CCCC2)c1	640	–	–
CC(C)(CC(=O)N1CCC[C@H]1C(=O)C1CCCC1)CC(=O)N1CCC[C@H]1C(=O)N1CCC[C@H]1C(=O)CO	–	0.7	–
N#C[C@H]1CCCN1C(=O)[C@@H]1CCCN1C(=O)c1cccc(C(=O)N2CCC[C@@H]2C(=O)C2CCCC2)c1	1.1	0.8	–
N#C[C@H]1CCCN1C(=O)[C@@H]1CCCN1C(=O)c1cccc(C(=O)N2CCC[C@@H]2C(=O)c2ccccc2)c1	1.3	1.1	–
O=C(CO)[C@H]1CCCN1C(=O)[C@@H]1CCCN1C(=O)c1cccc(C(=O)N2CCC[C@@H]2C(=O)C2CCCC2)c1	0.61	0.2	–
CC(C)(C)OC(=O)N1CCN(C(=O)[C@H]2CCCN2C(=O)c2cccc(C(=O)N3CCC[C@H]3C(=O)N3CCCC3)c2)CC1	170	–	–
O=C([C@H]1CCCN1C(=O)c1cccc(C(=O)N2CCC[C@H]2C(=O)N2CCCCCC2)c1)N1CCCC1	23	–	–
O=C(CO)[C@@H]1CCCN1C(=O)[C@@H]1CCCN1C(=O)c1cccc(C(=O)N2CCC[C@H]2C(=O)N2CCCC2)c1	0.39	–	–
C[C@H](NC(=O)c1cccc(C(=O)N[C@H](C)C(=O)N2CCCC2)c1)C(=O)N1CCCC1	87	–	–
CC(C)C(=O)[C@H]1CCCN1C(=O)c1cccc(C(=O)N2CCC[C@H]2C(=O)N2CCC[C@@H]2C#N)c1	1.6	0.3	–
CC(=O)[C@H]1CCCN1C(=O)c1cccc(C(=O)N2CCC[C@H]2C(=O)N2CCC[C@@H]2C#N)c1	4.2	-0.6	–
O=C([C@H]1CCCN1C(=O)c1cccc(C(=O)N2CCC[C@H]2C(=O)N2CCNCC2)c1)N1CCCC1	33	–	–
O=C(N[C@@H](Cc1ccccc1)C(=O)N1CCCC1)c1cccc(C(=O)N[C@H](Cc2ccccc2)C(=O)N2CCCC2)c1	81	–	–
COC(=O)[C@H]1CCCN1C(=O)c1cccc(C(=O)N2CCC[C@H]2C(=O)N2CCCC2)c1	54	–	–
O=C(C1CCCC1)[C@H]1CCCN1C(=O)c1cccc(C(=O)N2CCC[C@H]2C(=O)N2CCCC2)c1	14	–	–
CC(=O)[C@H]1CCCN1C(=O)c1cccc(C(=O)N2CCC[C@H]2C(=O)N2CCCC2)c1	65	–	–
N#C[C@H]1CCCN1C(=O)[C@@H]1CCCN1C(=O)c1cccc(C(=O)N2CCC[C@@H]2C(=O)C2CCCCC2)c1	0.72	–	–
CC(C)(CC(=O)N1CCC[C@H]1C(=O)C1CCCC1)CC(=O)N1CCC[C@H]1C(=O)N1CCC[C@H]1C#N	0.57	–	–
CC(=O)[C@H]1CCCN1C(=O)c1cccc(C(=O)N2CCC[C@H]2C(C)=O)c1	–	–	54
COC(=O)[C@H]1CCCN1C(=O)c1cccc(C(=O)N2CCC[C@H]2C(=O)C2CCCC2)c1	640	–	–
CSCC[C@H](NC(=O)c1cccc(C(=O)N[C@H](CCSC)C(=O)N2CCCC2)c1)C(=O)N1CCCC1	110	–	–
C[C@H](NC(=O)c1cccc(C(=O)N2CCC[C@H]2C(=O)N2CCCC2)c1)C(=O)N1CCCC1	39	–	–
O=C(NCc1ccccc1)[C@@H]1CCCN1C(=O)c1cccc(C(=O)N2CCC[C@@H]2C(=O)N2CCCC2)c1	31	–	–
O=C(C1CCCC1)[C@H]1CCCN1C(=O)c1cccc(C(=O)N2CCC[C@H]2C(=O)C2CCCC2)c1	78	2.7	–
O=C([C@@H]1CCCN1C(=O)c1cccc(C(=O)N2CCC[C@H]2C(=O)N2CCCC2)c1)N1CCCC1	–	-0.2	–
CC(=O)[C@H]1CCCN1C(=O)c1cccc(C(=O)N2CCC[C@H]2C(=O)N2CCC[C@@H]2C(=O)CO)c1	1.2	–	–
O=C(c1ccccc1)[C@H]1CCCN1C(=O)c1cccc(C(=O)N2CCC[C@H]2C(=O)N2CCCC2)c1	18	–	–
